In article PMC9564337, “Development of a Neurotensin-Derived ^68Ga-Labeled PET Ligand with High In Vivo Stability for Imaging of NTS1 Receptor-Expressing Tumors” (Cancers, 2022):
Marks after values point to notes of the source that are not given here.

Assays:
[1] = cited from earlier work
physchem = type: physicochemical; settings: pH 7.4
Experimental: The distribution coefficients logD7.4 of the radiotracers [^68Ga]21, [^68Ga]33, [^68Ga]37 and [^68Ga]56 were determined by adding a solution of the tracer in PBS (100 μL, ca. 0.20–0.34 MBq) to a mixture of n-octanol (500 μL) and PBS (pH 7.4) (400 μL) in a 2-mL HPLC vial (Agilent, article number 5182-0714) with a screw cap equipped with a septum (Agilent, article number 5182-0717). After vortexing the mixture for 2 min, two 100 μL aliquots of the upper phase (n-octanol) were taken. To obtain a sample of the lower phase (PBS), the HPLC vial was held upside down and approximately 100–150 µL of the aqueous phase were removed using a syringe equipped with a canula and collected in a reaction vessel. Two 10 µL aliquots of the aqueous phase were subjected to measurement. The activity of the aliquots was measured with a Canberra Genie 2000 system (Canberra, Rüsselsheim, Germany) using the Gamma Acquisition & Analysis Software Genie 2000 3.4.1. Experiments were performed in triplicate. The decay-corrected counts per minute (cpm) values were averaged (n = 3) and transformed to a distribution coefficient logD7.4 according to logD7.4 = log(Aoctanol/Aaqueous), where Aoctanol is the mean of the decay-corrected cpm values obtained for samples of the n-octanol phase, and Aaqueous is the mean of the decay-corrected cpm values obtained for samples of the aqueous phase.

in vivo = settings: female, NMRI nude (nu/nu), mouse, total radioactivity; for tissue to tissue ratio at 0.75 h: iv, tumor-to-muscle ratio
Experimental: (§1) 8–12 weeks old female NMRI nude (nu/nu) mice (body weight 22–32 g) (Charles River, Sulzfeld, Germany) were kept under specified pathogen free (SPF) conditions at 23 °C, 55% relative humidity and a 12 h light/dark cycle in the central animal facility of the University of Regensburg using type III cages from Tecniplast (Hohenpeißenberg, Germany). The animals took food (Ssniff, Soest, Germay) and autoclaved tap water ad libitum. For tumor cell implantation, the culture medium of HT-29 cells was removed, the cells were detached from the culture flask by incubation for 2 min in trypsin-EDTA and the suspension was centrifuged (5 min, rt, 164 g). The supernatant was removed, and the cell pellet was washed twice with sterile PBS or serum-free medium (5–6 mL). The cells were resuspended in sterile PBS to a final density of 1 × 10^7 cells/mL. Mice were injected subcutaneously into the right flank with the HT-29 cell suspension (100 µL). After 2–4 weeks, when the tumors had reached a size of 50–500 mm^3, animals were used for biodistribution and PET/computed tomography (CT) imaging studies (note: for PET/CT studies, the tumor size was at least 200 mm^3).
(§2) Aliquots of the tracer stock were diluted in PBS to give a volume of 200 µL. 80–100 µL (0.9–5.9 MBq) of this solution were injected into anesthetized HT-29 tumor-bearing nude mice via the tail vein. Animals were kept on a heating plate (set to 40 °C) or a pre-heated (ca. 45 °C) gel cushion and were killed by cardiac puncture 10 min, 25 min or 45 min p.i. immediately followed by taking blood, urine and tissue (i.e., tumor, kidney, liver, gall bladder, spleen, small intestine, heart, lung, brain, pancreas, femur and muscle) samples. Radioactivity measurement of the samples was performed with the Canberra Genie 2000 system described for the determination of the distribution coefficient logD7.4. Decay-corrected measured activities (cpm) were converted into activities (MBq) on the basis of an activity measurement with a ^68Ge-calibration standard source (Eckert&Ziegler, Berlin, Germany). Sample activities were converted to percentage of injected dose per gram tissue (%ID/g). Blocking experiments were performed by co-injection of the tracer with NTS1R ligand 48 (ca. 700 nmol per mouse). Mice were killed 45 min p.i. and analyzed as described above. The animals used for the 45-min biodistribution experiments were the same as used for the PET/CT imaging studies.

[2] = system: HT-29 tumor-bearing nude mice; assay: in vivo; settings: mouse
Experimental: as §1, §2

[3] = Uptake (%ID/g) gall bladder (bile)
[4] = female, NMRI nude (nu/nu), 0.75 h

For `CC[C@H](C)[C@H](NC(=O)[C@H](Cc1ccc(O)cc1)NC(=O)[C@@H]1CCCN1C(=O)[C@H](CCCNC(=N)N)NC(=O)[C@@H](N)CCCNC(=N)N)C(=O)N[C@@H](CC(C)C)C(=O)O` [Compound 1, Arg^8-Arg^9-Pro^10-Tyr^11-Ile^12-Leu^13], the plasma half-life [1] is listed as “only a few minutes”, the “% Intact Peptide in Plasma after 10 min” value ([1]; human plasma, 37 °C, 10 min, ref Schindler et al. [40]) is listed as 23 ^d % and the “% Intact Peptide in Plasma after 1 h” value ([1]; human plasma, 37 °C, 1 h, ref Schindler et al. [40]) is listed as <1 ^d %. For the same molecule, the “% Intact Peptide in Plasma after 24 h” value ([1]; human plasma, 37 °C, 24 h, ref Schindler et al. [40]) was <1 ^d % and the “% Intact Peptide in Plasma after 48 h” value ([1]; human plasma, 37 °C, 48 h, ref Schindler et al. [40]) was <1 ^d %.

`CN[C@@H](CCCNC(N)=NC(=O)NCCCCNC(=O)CN1CCN(CC(=O)O)CCN(CC(=O)O)CCN(CC(=O)O)CC1)C(=O)N[C@@H](CCCNC(=N)N)C(=O)N1CCC[C@H]1C(=O)N[C@@H](Cc1ccc(O)cc1)C(=O)N[C@H](C(=O)N[C@@H](CC(C)C)C(=O)O)C(C)(C)C` [[^68Ga]21, metal not drawn] gave a logD (physchem) of -3.87, a tissue to tissue ratio at 0.75 h (in vivo) of 9.5 ± 3.7 and a tissue uptake at 0.75 h (in vivo; Uptake (%ID/g) blood) of 0.63 ± 0.2 %ID/g. The tissue uptake at 0.75 h (in vivo; [3]) was 0.55 ± 0.29 %ID/g, the tissue uptake at 0.75 h (in vivo; Uptake (%ID/g) kidney) was 6 ± 1.9 %ID/g and the tissue uptake at 0.75 h (in vivo; Uptake (%ID/g) liver) was 0.59 ± 0.17 %ID/g. It also gave a tissue uptake at 0.75 h (in vivo; Uptake (%ID/g) muscle) of 0.21 ± 0.062 %ID/g, a tissue uptake at 0.75 h (in vivo; Uptake (%ID/g) tumor) of 1.9 ± 0.7 %ID/g and a tumor-to-muscle ratio [2] of 9.5.

With `CN[C@@H](CCCNC(N)=NC(=O)NCCOCCOCCNC(=O)[C@@H](Cc1ccc(-c2ccc(F)cc2)cc1)NC(=O)CCCCCNC(=O)CN1CCN(CC(=O)O)CCN(CC(=O)O)CCN(CC(=O)O)CC1)C(=O)N[C@@H](CCCNC(=N)N)C(=O)N1CCC[C@H]1C(=O)N[C@@H](Cc1ccc(O)cc1)C(=O)N[C@H](C(=O)N[C@@H](CC(C)C)C(=O)O)C(C)(C)C` [[^68Ga]33, metal not drawn] the logD (physchem) was -2.48, the tissue to tissue ratio at 0.75 h (in vivo) was 4.1 ± 1.7 and the tissue uptake at 0.75 h (in vivo; Uptake (%ID/g) blood) was 1.3 ± 0.29 %ID/g. For the same molecule, the tissue uptake at 0.75 h (in vivo; [3]) was 2 ± 0.14 %ID/g, the tissue uptake at 0.75 h (in vivo; Uptake (%ID/g) kidney) was 10 ± 0.96 %ID/g and the tissue uptake at 0.75 h (in vivo; Uptake (%ID/g) liver) was 16 ± 2.2 %ID/g. For the same molecule, the tissue uptake at 0.75 h (in vivo; Uptake (%ID/g) muscle) was 0.41 ± 0.17 %ID/g, the tissue uptake at 0.75 h (in vivo; Uptake (%ID/g) tumor) was 1.5 ± 0.22 %ID/g and the tumor-to-muscle ratio [2] was 4.1.

With `CN[C@@H](CCCNC(N)=NC(=O)NCCOCCOCCNC(=O)[C@@H](Cc1ccc(-c2ccc(F)cc2)cc1)NC(=O)CN1CCN(CC(=O)O)CCN(CC(=O)O)CCN(CC(=O)O)CC1)C(=O)N[C@@H](CCCNC(=N)N)C(=O)N1CCC[C@H]1C(=O)N[C@@H](Cc1ccc(O)cc1)C(=O)N[C@H](C(=O)N[C@@H](CC(C)C)C(=O)O)C(C)(C)C` [[^68Ga]37, metal not drawn] the logD (physchem) was -2.59, the tissue to tissue ratio at 0.75 h (in vivo) was 3.4 ± 0.71 and the tissue uptake at 0.75 h (in vivo; [3]) was 1.9 ± 0.34 %ID/g. For the same molecule, the tissue uptake at 0.75 h (in vivo; Uptake (%ID/g) kidney) was 7.6 ± 0.39 %ID/g, the tissue uptake at 0.75 h (in vivo; Uptake (%ID/g) liver) was 4.1 ± 0.79 %ID/g and the tissue uptake at 0.75 h (in vivo; Uptake (%ID/g) muscle) was 0.5 ± 0.18 %ID/g. It also gave a tissue uptake at 0.75 h (in vivo; Uptake (%ID/g) tumor) of 1.6 ± 0.19 %ID/g and a tumor-to-muscle ratio [2] of 3.4.

`CC[C@H](C)[C@H](NC(=O)[C@@H](NC(=O)[C@@H]1CCCN1C(=O)[C@H](CCCNC(=N)N)NC(=O)[C@H](CCCNC(N)=NC(=O)NCCCCNC(=O)CN1CCN(CC(=O)O)CCN(CC(=O)O)CCN(CC(=O)O)CC1)NC)C(C)(C)c1ccc(O)cc1)C(=O)N[C@@H](CC(C)C)C(=O)O` [[^68Ga]56, metal not drawn] showed a logD (physchem) of -3.06, a tissue uptake at 10 min (in vivo; Uptake (%ID/g) blood) of 3.1 ± 0.34 %ID/g and a tissue uptake at 25 min (in vivo; Uptake (%ID/g) blood) of 2.9 ± 1.3 %ID/g. The tissue uptake at 0.75 h (in vivo; Uptake (%ID/g) blood) was 1.3 ± 0.33 %ID/g, the tissue uptake at 10 min (in vivo; Uptake (%ID/g) brain) was 0.079 ± 0.017 %ID/g and the tissue uptake at 25 min (in vivo; Uptake (%ID/g) brain) was 0.13 ± 0.11 %ID/g. For the same molecule, the tissue uptake at 0.75 h (in vivo; Uptake (%ID/g) brain) was 0.061 ± 0.049 %ID/g, the tissue uptake at 10 min (in vivo; Uptake (%ID/g) femur) was 0.95 ± 0.25 %ID/g and the tissue uptake at 25 min (in vivo; Uptake (%ID/g) femur) was 0.78 ± 0.27 %ID/g. The tissue uptake at 0.75 h (in vivo; Uptake (%ID/g) femur) was 0.73 ± 0.29 %ID/g, the tissue uptake at 10 min (in vivo; [3]) was 1.1 ± 0.71 %ID/g and the tissue uptake at 25 min (in vivo; [3]) was 1.9 ± 0.79 %ID/g. For the same molecule, the tissue uptake at 10 min (in vivo; Uptake (%ID/g) heart) was 1.2 ± 0.1 %ID/g, the tissue uptake at 25 min (in vivo; Uptake (%ID/g) heart) was 1.3 ± 0.49 %ID/g and the tissue uptake at 0.75 h (in vivo; Uptake (%ID/g) heart) was 0.72 ± 0.36 %ID/g. For the same molecule, the tissue uptake at 10 min (in vivo; Uptake (%ID/g) intestine) was 1.8 ± 0.22 %ID/g, the tissue uptake at 25 min (in vivo; Uptake (%ID/g) intestine) was 2.4 ± 0.68 %ID/g and the tissue uptake at 10 min (in vivo; Uptake (%ID/g) kidney) was 47 ± 3.4 %ID/g. It also gave a tissue uptake at 25 min (in vivo; Uptake (%ID/g) kidney) of 47 ± 7 %ID/g, a tissue uptake at 0.75 h (in vivo; Uptake (%ID/g) kidney) of 55 ± 28 %ID/g and a tissue uptake at 10 min (in vivo; Uptake (%ID/g) liver) of 7.2 ± 0.83 %ID/g. For the same molecule, the tissue uptake at 25 min (in vivo; Uptake (%ID/g) liver) was 5.7 ± 1.6 %ID/g, the tissue uptake at 10 min (in vivo; Uptake (%ID/g) lung) was 2.4 ± 0.3 %ID/g and the tissue uptake at 25 min (in vivo; Uptake (%ID/g) lung) was 2.8 ± 1.5 %ID/g. For the same molecule, the tissue uptake at 0.75 h (in vivo; Uptake (%ID/g) lung) was 1.2 ± 0.34 %ID/g, the tissue uptake at 10 min (in vivo; Uptake (%ID/g) muscle) was 1.1 ± 0.18 %ID/g and the tissue uptake at 25 min (in vivo; Uptake (%ID/g) muscle) was 0.57 ± 0.23 %ID/g. It also gave a tissue uptake at 0.75 h (in vivo; Uptake (%ID/g) muscle) of 0.55 ± 0.23 %ID/g, a tissue uptake at 10 min (in vivo; Uptake (%ID/g) pancreas) of 1.3 ± 0.83 %ID/g and a tissue uptake at 25 min (in vivo; Uptake (%ID/g) pancreas) of 1.1 ± 1.1 %ID/g. It also gave a tissue uptake at 0.75 h (in vivo; Uptake (%ID/g) pancreas) of 0.9 ± 0.57 %ID/g, a tissue uptake at 10 min (in vivo; Uptake (%ID/g) spleen) of 2.5 ± 0.25 %ID/g and a tissue uptake at 25 min (in vivo; Uptake (%ID/g) spleen) of 2.6 ± 0.6 %ID/g. The tissue uptake at 10 min (in vivo; Uptake (%ID/g) tumor) was 3.6 ± 0.2 %ID/g, the tissue uptake at 25 min (in vivo; Uptake (%ID/g) tumor) was 7.3 ± 1.8 %ID/g and the “Uptake (%ID/g) blood” value [2, 4] was 1.4 ± 1.0 %ID/g. The “Uptake (%ID/g) brain” value [2, 4] was 0.10 ± 0.074 %ID/g, the “Uptake (%ID/g) femur” value [2, 4] was 0.65 ± 0.43 %ID/g and the “Uptake (%ID/g) heart” value [2, 4] was 0.60 ± 0.44 %ID/g. The “Uptake (%ID/g) kidney” value [2, 4] was 53 ± 27 %ID/g, the “Uptake (%ID/g) muscle” value [2, 4] was 0.68 ± 0.61 %ID/g and the “Uptake (%ID/g) pancreas” value [2, 4] was 0.51 ± 0.37 %ID/g.
